In US6140360A, “Antifungal agent” (TOA Gosei Co., Ltd., priority 1996, dated 2000):
Values after ≈ are worked out from the molar mass of the structure shown. Like-named read-outs stand apart in the source and are kept apart here. Each block holds one compound with its values, some of them ahead of it.

How the values were obtained:
Candida albicans [1] = experiment: in vitro antifungal activity (MIC); assay type: cell-based
Experimental: Using Candida albicans, Aspergillus niger, Aspergillus fumigatus, and Cryptococcus neoformans as test fungi, in vitro antifungal activities were determined to confirm the antifungal activities of cryptoporic acids A, B, and D. The test method and the results are shown below.
The fungal strains used for this test were standard strains provided by Teikyo University, Institute of Medical Mycology. Drug sensitivity was measured using Yeast Morphology Agar (Difco) as media.
The test fungi were spread over slant made of a potato dextrose agar medium (NissuiSeiyaku) and cultured at 30° C. for one day (Candida, Cryptococcus) or four days (Aspergillus niger, Aspergillus neoformans). After culturing, fungi on the slant were washed away with sterile physiological saline supplemented with 0.1% Tween 80. The solution was passed through a filter with 15 μm pores. The fungi were counted on a hemocytometer and adjusted to 10^5 CFU/ml to serve as an inoculation solution. A 0.02 ml portion of this solution was inoculated into Yeast Morphology Agar containing test agents by two-fold serial dilution and cultured at 30° C. for 1 or 4 days.
Antifungal effect was judged with naked eyes. Concentrations at which evident inhibition of growth was observed compared with control media containing no drug were taken as MIC values.
Candida albicans, Aspergillus niger, Aspergillus fumigatus, and Cryptococcus neoformans were used as test fungi. The test for in vitro antifungal activity was conducted in the same manner as in 1 above to confirm antifungal activity.
3. In vitro antifungal activities of cryptoporic acid derivatives represented by formula 3 and a commercially available antifungal agent, Diflucan, were tested using Candida albicans as test fungi in the same manner.

Aspergillus fumigatus [2] = experiment: in vitro antifungal activity (MIC); assay type: cell-based; conditions: Table 2, Yeast Morphology Agar, 30° C.
Experimental: Using Candida albicans, Aspergillus niger, Aspergillus fumigatus, and Cryptococcus neoformans as test fungi, in vitro antifungal activities were determined to confirm the antifungal activities of cryptoporic acids A, B, and D. The test method and the results are shown below. The fungal strains used for this test were standard strains provided by Teikyo University, Institute of Medical Mycology. Drug sensitivity was measured using Yeast Morphology Agar (Difco) as media. The test fungi were spread over slant made of a potato dextrose agar medium (NissuiSeiyaku) and cultured at 30° C. for one day (Candida, Cryptococcus) or four days (Aspergillus niger, Aspergillus neoformans). After culturing, fungi on the slant were washed away with sterile physiological saline supplemented with 0.1% Tween 80. The solution was passed through a filter with 15 μm pores. The fungi were counted on a hemocytometer and adjusted to 10^5 CFU/ml to serve as an inoculation solution. A 0.02 ml portion of this solution was inoculated into Yeast Morphology Agar containing test agents by two-fold serial dilution and cultured at 30° C. for 1 or 4 days. Antifungal effect was judged with naked eyes. Concentrations at which evident inhibition of growth was observed compared with control media containing no drug were taken as MIC values. […]

Candida albicans [3] = experiment: Infection-Treating Test, Candida albicans infected mice; assay type: in vivo, mice (ICR); conditions: oral in sesame oil, first dose 1 hour after i.v. inoculation (1.0×10^6 CFU/mouse), once a day, total seven days, survival, Weil method
Experimental: (§1) Candida albicans (1.0×10^6 CFU/mouse) or Aspergillus fumigatus (2.0×10^6 CFU/mouse) was suspended in physiological saline, and a 0.2 ml portion of each solution was injected into healthy grown mice (ICR, 4 week-old, female, 19-22 g, Nihon CLEA) via the caudal vein to establish infection. Cryptoporic acid H was dissolved in sesame oil in prescribed concentrations, and a 0.2 ml portion was orally administered per dose to the mice through a stomach probe. The first administration was conducted 1 hour after inoculation of fungi. Thereafter, administration was conducted six times (once a day every 24 hours; for a total of seven days). only the base (0.2 ml) was administered to the control group. Treatment effectiveness was evaluated with ED50 by using the Weil method from the survival rate of treated mice when all the control animals died.

Aspergillus fumigatus [4] = experiment: Infection-Treating Test, Aspergillus fumigatus infected mice; assay type: in vivo, mice (ICR); conditions: oral in sesame oil, first dose 1 hour after i.v. inoculation (2.0×10^6 CFU/mouse), once a day, total seven days, survival, Weil method
Experimental: as §1

Solubility = assay type: physicochemical; conditions: in methanol, acetone, and ethyl acetate
[5] = 24 h, Table 1, Yeast Morphology Agar, 30° C., 1 day, read-out: MIC (Candida albicans)

MIC (Candida albicans [1]; [5]): 25 µg/mL (≈ 58.9 µM)
Structure (SMILES): C=C1CC[C@H]2C(C)(C)CCC[C@]2(C)[C@H]1COC(C(=O)OC)C(CC(=O)O)C(=O)OC (stereo partly drawn) [Cryptoporic acid A]

MIC (Candida albicans [1]; [5]): 25 µg/mL (≈ 56.7 µM) | MIC (Aspergillus fumigatus [2]): 200 µg/mL (≈ 454 µM)
Structure (SMILES): C=C1CC[C@H]2[C@](C)(CO)CCC[C@]2(C)[C@H]1COC(C(=O)OC)C(CC(=O)O)C(=O)OC (stereo partly drawn) [Cryptoporic acid B]

MIC (Candida albicans [1]; [5]): 100 µg/mL (≈ 122 µM)
Structure (SMILES): C=C1CCC2C3(C)CCCC2(C)C1COC(C(=O)OC)C(CC(=O)O)C(=O)OCC1(C)CCCC2(C)C(COC(C(=O)OC)C(CC(=O)O)C(=O)OC3)C(=C)CCC12 (stereo not drawn) [Cryptoporic acid D]

Structure (SMILES): C=C1CC[C@H]2C(C)(C)CCC[C@]2(C)[C@H]1COC(C(=O)O)C(CC(=O)O)C(=O)O (stereo partly drawn) [Cryptoporic acid H]
ED50 (Candida albicans [3]): 0.32 mg/kg | ED50 (Aspergillus fumigatus [4]): 2 mg/kg

Structure (SMILES): OC(Cn1cncn1)(Cn1cncn1)c1ccc(F)cc1F [Diflucan, reference compound]
MIC (Candida albicans [1]; TIMM1623): 25 µg/mL (≈ 81.6 µM)

Solubility (Solubility): Easily soluble
Structure (SMILES): C=C1CC[C@H]2C(C)(C)CCC[C@]2(C)[C@H]1COC(C(=O)OC)C(CC(=O)O)C(=O)O[C@H]1CC(C)(C)[C@@H]2CC=C(C=O)[C@H](C=O)[C@@]2(C)C1 (stereo partly drawn) [TG 101]

Solubility (Solubility): Easily soluble
Structure (SMILES): C=C1CC[C@H]2C(C)(C)CCC[C@]2(C)[C@H]1COC(C(=O)OC)C(CC(=O)O)C(=O)O[C@H]1CC(C)(C)[C@@H]2CC=C3COC(O)[C@@H]3[C@@]2(C)C1 (stereo partly drawn) [TG 103]
